Laboratory results published in patent publication US9951063B2, “8-(piperazin-1-yl)-1,2,3,4-tetrahydro-isoquinoline derivatives” (IDORSIA PHARMACEUTICALS LTD, priority 2014, dated 2018).

Biological target: human CXCR3A (Homo sapiens (Human), UniProt P49682)
Test: FLIPR assay (inhibition of CXCL10-induced calcium signal)
Type: cell-based
Conditions: engineered CHO-K1 cells expressing human CXCR3A coupled to Galpha(16); Fluo-4-AM; CXCL10 agonist 20 nM; mean values where determined several times
Description: The bioactivity of compounds is tested in a fluorometric imaging plate reader (FLIPR: Molecular Devices) using engineered CHO-K1 cells expressing the human CXCR3A (GenBank: AY242128) coupled to a G protein (Galpha(16)). Cells are plated the day prior to bioassay in F12 medium supplemented with 10% FBS and G418 and hygromycin antibiotics to maintain recombinant selection. At the day of bioassay, cells are washed and dye loaded for one hour with Fluo-4-AM (Invitrogen) in Hanks Balanced Salt Solution (Invitrogen), buffered with 20 mM Hepes at pH 7.4 and sodium bicarbonate (0.038%), containing 5 mM probenecid. This buffer, but lacking the dye and containing probenecid at a concentration of 2.5 mM, is also used for washing steps (wash buffer); or lacking both dye and probenecid but supplemented with 0.1% BSA for compound dilution steps (dilution buffer). Cells are washed free of excess dye and 60 microliter of wash buffer is added. Stock solutions of test compounds are made up at a concentration of 10 mM in DMSO, and serially diluted in dilution buffer to concentrations required for inhibition dose response curves. After a 10 minute incubation period at 37° C., 10 microliters of each compound dilution are transferred from a compound plate to the plate containing the recombinant cells in the FLIPR instrument according to the manufacturer's instructions. Following basal readings, 10 microliter CXCL10 agonist at a concentration of 20 nM (from Peprotech) is added, again using the FLIPR instrument. Changes in fluorescence are monitored before and after addition of the test compounds. Emission peak values above base level after CXCL10 addition are exported after base line subtraction.
The calculated IC50 values may fluctuate depending on the daily assay performance. Fluctuations of this kind are known to those skilled in the art. In the case where IC50 values have been determined several times for the same compound, mean values are given.

Sequence of human CXCR3A (P49682 whole entry): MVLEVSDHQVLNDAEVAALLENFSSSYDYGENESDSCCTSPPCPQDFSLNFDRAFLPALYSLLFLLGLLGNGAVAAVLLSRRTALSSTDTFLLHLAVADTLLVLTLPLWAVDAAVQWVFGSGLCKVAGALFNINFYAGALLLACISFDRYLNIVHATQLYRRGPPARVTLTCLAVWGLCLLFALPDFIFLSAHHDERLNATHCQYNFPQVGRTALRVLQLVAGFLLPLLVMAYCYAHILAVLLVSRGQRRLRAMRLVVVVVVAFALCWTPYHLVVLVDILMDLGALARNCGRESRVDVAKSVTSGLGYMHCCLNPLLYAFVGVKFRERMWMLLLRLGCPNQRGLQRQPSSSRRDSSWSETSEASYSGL

| Structure (SMILES) | IC50 |
| --- | --- |
| COc1ncc(N2CCc3c(C(F)(F)F)ccc(N4CCN(C(=O)Cn5nc(C)cc5C)[C@H](C)C4)c3C2)cn1 [Example 24, 2-(3,5-Dimethyl-pyrazol-1-yl)-1-{(R)-4-[2-(2-methoxy-pyrimidin-5-yl)-5-trifluoromethyl-1,2,3,4-tetrahydro-isoquinolin-8-yl]-2-methyl-piperazin-1-yl}-ethanone] | 3.7 nM |
| COc1ncc(N2CCc3c(C(F)(F)F)ccc(N4CCN(C(=O)Cn5cccn5)[C@H](C)C4)c3C2)cn1 [Example 25, 1-{(R)-4-[2-(2-Methoxy-pyrimidin-5-yl)-5-trifluoromethyl-1,2,3,4-tetrahydro-isoquinolin-8-yl]-2-methyl-piperazin-1-yl}-2-pyrazol-1-yl-ethanone] | 24 nM |
| COc1ncc(N2CCc3c(C(F)(F)F)ccc(N4CCN(C(=O)Cn5nccn5)[C@H](C)C4)c3C2)cn1 [Example 26, 1-{(R)-4-[2-(2-Methoxy-pyrimidin-5-yl)-5-trifluoromethyl-1,2,3,4-tetrahydro-isoquinolin-8-yl]-2-methyl-piperazin-1-yl}-2-[1,2,3]triazol-2-yl-ethanone] | 98.5 nM |
| COc1ncc(N2CCc3c(C(F)(F)F)ccc(N4CCN(C(=O)CCn5cccn5)[C@H](C)C4)c3C2)cn1 [Example 27, 1-{(R)-4-[2-(2-Methoxy-pyrimidin-5-yl)-5-trifluoromethyl-1,2,3,4-tetrahydro-isoquinolin-8-yl]-2-methyl-piperazin-1-yl}-3-pyrazol-1-yl-propan-1-one] | 908 nM |
| CCOc1ncc(N2CCc3c(C(F)(F)F)ccc(N4CCN(C(=O)Cn5cnc6cccnc65)CC4)c3C2)cn1 [Example 28, 1-{4-[2-(2-Ethoxy-pyrimidin-5-yl)-5-trifluoromethyl-1,2,3,4-tetrahydro-isoquinolin-8-yl]-piperazin-1-yl}-2-imidazo[4,5-b]pyridin-3-yl-ethanone] | 2.4 nM |
| CCOc1ncc(N2CCc3c(C(F)(F)F)ccc(N4CCN(C(=O)Cn5nc(C)cc5C)CC4)c3C2)cn1 [Example 29, 2-(3,5-Dimethyl-pyrazol-1-yl)-1-{4-[2-(2-ethoxy-pyrimidin-5-yl)-5-trifluoromethyl-1,2,3,4-tetrahydro-isoquinolin-8-yl]-piperazin-1-yl}-ethanone] | 30.5 nM |
| CCOc1ncc(N2CCc3c(C(F)(F)F)ccc(N4CCN(C(=O)Cn5nc(C)nc5C)CC4)c3C2)cn1 [Example 30, 2-(3,5-Dimethyl-[1,2,4]triazol-1-yl)-1-{4-[2-(2-ethoxy-pyrimidin-5-yl)-5-trifluoromethyl-1,2,3,4-tetrahydro-isoquinolin-8-yl]-piperazin-1-yl}-ethanone] | 13.8 nM |
| CCOc1ncc(N2CCc3c(C(F)(F)F)ccc(N4CCN(C(=O)Cn5ncc6cccnc65)CC4)c3C2)cn1 [Example 31, 1-{4-[2-(2-Ethoxy-pyrimidin-5-yl)-5-trifluoromethyl-1,2,3,4-tetrahydro-isoquinolin-8-yl]-piperazin-1-yl}-2-pyrazolo[3,4-b]pyridin-1-yl-ethanone] | 11.5 nM |
| CCOc1ncc(N2CCc3c(C(F)(F)F)ccc(N4CCN(C(=O)Cn5cc6cccnc6n5)CC4)c3C2)cn1 [Example 32, 1-{4-[2-(2-Ethoxy-pyrimidin-5-yl)-5-trifluoromethyl-1,2,3,4-tetrahydro-isoquinolin-8-yl]-piperazin-1-yl}-2-pyrazolo[3,4-b]pyridin-2-yl-ethanone] | 9.83 nM |
| CCOc1ncc(N2CCc3c(C(F)(F)F)ccc(N4CCN(C(=O)CN5C(=O)Cc6ccccc65)CC4)c3C2)cn1 [Example 33, 1-(2-{4-[2-(2-Ethoxy-pyrimidin-5-yl)-5-trifluoromethyl-1,2,3,4-tetrahydro-isoquinolin-8-yl]-piperazin-1-yl}-2-oxo-ethyl)-1,3-dihydro-indol-2-one] | 10.9 nM |
| CCOc1ncc(N2CCc3c(C(F)(F)F)ccc(N4CCN(C(=O)Cn5cnc6cccnc65)[C@@H](C)C4)c3C2)cn1 [Example 34, 1-{(S)-4-[2-(2-Ethoxy-pyrimidin-5-yl)-5-trifluoromethyl-1,2,3,4-tetrahydro-isoquinolin-8-yl]-2-methyl-piperazin-1-yl}-2-imidazo[4,5-b]pyridin-3-yl-ethanone] | 16.7 nM |
| CCOc1ncc(N2CCc3c(C(F)(F)F)ccc(N4CCN(C(=O)Cn5nc(C)cc5C)[C@@H](C)C4)c3C2)cn1 [Example 35, 2-(3,5-Dimethyl-pyrazol-1-yl)-1-{(S)-4-[2-(2-ethoxy-pyrimidin-5-yl)-5-trifluoromethyl-1,2,3,4-tetrahydro-isoquinolin-8-yl]-2-methyl-piperazin-1-yl}-ethanone] | 30.8 nM |
| CCOc1ncc(N2CCc3c(C(F)(F)F)ccc(N4CCN(C(=O)Cn5ccc(C)n5)[C@@H](C)C4)c3C2)cn1 [Example 36, 1-{(S)-4-[2-(2-Ethoxy-pyrimidin-5-yl)-5-trifluoromethyl-1,2,3,4-tetrahydro-isoquinolin-8-yl]-2-methyl-piperazin-1-yl}-2-(3-methyl-pyrazol-1-yl)-ethanone] | 6.27 nM |
| CCOc1ncc(N2CCc3c(C(F)(F)F)ccc(N4CCN(C(=O)CN5CCc6cccnc65)[C@@H](C)C4)c3C2)cn1 [Example 37, 2-(2,3-Dihydro-pyrrolo[2,3-b]pyridin-1-yl)-1-{(S)-4-[2-(2-ethoxy-pyrimidin-5-yl)-5-trifluoromethyl-1,2,3,4-tetrahydro-isoquinolin-8-yl]-2-methyl-piperazin-1-yl}-ethanone] | 30.9 nM |
| Cc1nc(C)n(CC(=O)N2CCN(c3ccc(C(F)(F)F)c4c3CN(c3nc5ccc(F)cc5s3)CC4)C[C@H]2C)n1 [Example 38, 2-(3,5-Dimethyl-[1,2,4]triazol-1-yl)-1-{(R)-4-[2-(6-fluoro-benzothiazol-2-yl)-5-trifluoromethyl-1,2,3,4-tetrahydro-isoquinolin-8-yl]-2-methyl-piperazin-1-yl}-ethanone] | 15.8 nM |

Continued, values first:

| IC50 | Structure (SMILES) |
| --- | --- |
| 73.5 nM | C[C@@H]1CN(c2ccc(C(F)(F)F)c3c2CN(c2nc4ccc(F)cc4s2)CC3)CCN1C(=O)Cn1ncc2cccnc21 [Example 39, 1-{(R)-4-[2-(6-Fluoro-benzothiazol-2-yl)-5-trifluoromethyl-1,2,3,4-tetrahydro-isoquinolin-8-yl]-2-methyl-piperazin-1-yl}-2-pyrazolo[3,4-b]pyridin-1-yl-ethanone] |
| 49 nM | Cc1ccn(CC(=O)N2CCN(c3ccc(C(F)(F)F)c4c3CN(c3nc5ccc(F)cc5s3)CC4)C[C@H]2C)n1 [Example 40, 1-{(R)-4-[2-(6-Fluoro-benzothiazol-2-yl)-5-trifluoromethyl-1,2,3,4-tetrahydro-isoquinolin-8-yl]-2-methyl-piperazin-1-yl}-2-(3-methyl-pyrazol-1-yl)-ethanone] |
| 51.4 nM | Cc1ccnn1CC(=O)N1CCN(c2ccc(C(F)(F)F)c3c2CN(c2nc4ccc(F)cc4s2)CC3)C[C@H]1C [Example 41, 1-{(R)-4-[2-(6-Fluoro-benzothiazol-2-yl)-5-trifluoromethyl-1,2,3,4-tetrahydro-isoquinolin-8-yl]-2-methyl-piperazin-1-yl}-2-(5-methyl-pyrazol-1-yl)-ethanone] |
| 8.29 nM | Cc1nc(C)n(CC(=O)N2CCN(c3ccc(C(F)(F)F)c4c3CN(c3nc(C(F)(F)F)cs3)CC4)C[C@H]2C)n1 [Example 42, 2-(3,5-Dimethyl-[1,2,4]triazol-1-yl)-1-{(R)-2-methyl-4-[5-trifluoromethyl-2-(4-trifluoromethyl-thiazol-2-yl)-1,2,3,4-tetrahydro-isoquinolin-8-yl]-piperazin-1-yl}-ethanone] |
| 38.6 nM | C[C@@H]1CN(c2ccc(C(F)(F)F)c3c2CN(c2nc(C(F)(F)F)cs2)CC3)CCN1C(=O)Cn1ncc2cccnc21 [Example 43, 1-{(R)-2-Methyl-4-[5-trifluoromethyl-2-(4-trifluoromethyl-thiazol-2-yl)-1,2,3,4-tetrahydro-isoquinolin-8-yl]-piperazin-1-yl}-2-pyrazolo[3,4-b]pyridin-1-yl-ethanone] |
| 12 nM | Cc1ccn(CC(=O)N2CCN(c3ccc(C(F)(F)F)c4c3CN(c3nc(C(F)(F)F)cs3)CC4)C[C@H]2C)n1 [Example 44, 2-(3-Methyl-pyrazol-1-yl)-1-{(R)-2-methyl-4-[5-trifluoromethyl-2-(4-trifluoromethyl-thiazol-2-yl)-1,2,3,4-tetrahydro-isoquinolin-8-yl]-piperazin-1-yl}-ethanone] |
| 12.7 nM | Cc1ccnn1CC(=O)N1CCN(c2ccc(C(F)(F)F)c3c2CN(c2nc(C(F)(F)F)cs2)CC3)C[C@H]1C [Example 45, 2-(5-Methyl-pyrazol-1-yl)-1-{(R)-2-methyl-4-[5-trifluoromethyl-2-(4-trifluoromethyl-thiazol-2-yl)-1,2,3,4-tetrahydro-isoquinolin-8-yl]-piperazin-1-yl}-ethanone] |
| 4.37 nM | Cc1nc(C)n(CC(=O)N2CCN(c3ccc(C(F)(F)F)c4c3CN(c3cnc(C5CC5)nc3)CC4)C[C@H]2C)n1 [Example 46, 1-{(R)-4-[2-(2-Cyclopropyl-pyrimidin-5-yl)-5-trifluoromethyl-1,2,3,4-tetrahydro-isoquinolin-8-yl]-2-methyl-piperazin-1-yl}-2-(3,5-dimethyl-[1,2,4]triazol-1-yl)-ethanone] |
